What all share (experiment): microbe, parasite or virus in culture
The test system of test [1] is C. albicans (ATCC 60193). The test is classed as cell-based, Candida albicans. As for the experimental part:
(§1) The antifungal activity of all ten synthesized linear and cyclic peptides was evaluated against C. albicans (ATCC 60193), C. parapsilosis (ATCC 22019), and A. fumigatus (AF-293). Fluconazole and amphotericin B were used as positive controls for this study. The MIC was determined at concentrations in wells with no visible fungal growth.
(§2) In this study, C. albicans and C. parapsilosis were cultured on Yeast Peptone Dextrose (YPD) agar containing 1% w/v yeast extract, 2% w/v peptone, 2% w/v D-glucose, and 1.5% agar. A single colony from the agar was selected and cultured in Tryptone soy broth supplemented with 0.1% D-glucose, then incubated for 24 h at 37 °C. The cells were washed twice with PBS by centrifugation at 2000 RPM for 5 min. The pellet was resuspended in 5 mL of PBS, diluted in RPMI 1640 with L-glutamine, supplemented with 2% D-glucose, and the pH adjusted using HEPES buffer. The suspension was then incubated for 50 min at 35 °C to achieve a final cell concentration of 10^6 cells/mL.
(§3) Peptide concentrations of 50, 25, 12.5, 6.25, and 3.1 μg/mL were tested in triplicate and repeated twice. Each well of a 96-well plate was inoculated with the prepared inoculum suspension, which was diluted with RPMI media to a final volume of 200 μL per well. The control well received the same inoculum without any compound. The plates were incubated for 24 h at 37 °C. Fungal and microbial growth were visually observed in the control wells, and the minimum inhibitory concentration (MIC) was determined as the lowest concentration at which no growth was detected in the wells. Amphotericin B was used as a standard antifungal drug.

In test [2] the test system is C. parapsilosis (ATCC 22019). The test is classed as cell-based, Candida parapsilosis. As for the experimental part:
as §1, §2, §3

Test [3] has as its system A. fumigatus (Af-293). Type of test: cell-based, Aspergillus fumigatus. The conditions noted are these: RPMI 1640 with 2% D-glucose, HEPES, 10^6 cells/mL, 24 and 48 h at 35 °C, no visible growth, triplicates, repeated twice. As for the experimental part: as §1
A. fumigatus (Af-293) was cultured on Sabouraud dextrose agar (SDA) (Lot #3431660, Oxoid) for 48–72 h at 35 °C to obtain fresh and mature colonies which reached the proper sporulation then used to prepare the inoculum. The colonies were covered with Phosphate-Buffered Saline (PBS) containing 0.025% Tween-20, scraped from the plate, and carefully collected into a sterile tube. The suspension was centrifuged at 3000 RPM for 5 min after the separation between conidia and hyphae. The supernatant was discarded, and the pellet was resuspended in 5 mL of PBS.
Peptide concentrations of 50, 25, 12.5, 6.25, and 3.1 μg/mL were tested in triplicate. Each well of a 96-well plate was inoculated with the prepared inoculum suspension, which was diluted with RPMI 1640 medium containing L-glutamine, supplemented with 2% D-glucose, and the pH adjusted using HEPES buffer. The plates were incubated for 50 min at 35 °C to achieve a final cell concentration of 10^6 cells/mL. The control wells contained the same inoculum without any compound. The plates were then incubated for 24 and 48 h at 35 °C. Fungal growth was visualized, and the minimum inhibitory concentration (MIC) was determined as the lowest peptide concentration, where no growth was observed.

Test [4] deals with MRSA (ATCC BAA-1556). Type of test: cell-based, Methicillin-Resistant Staphylococcus aureus. The conditions noted are these: ATCC BAA-1556, 24 h. As for the experimental part: (§4) The antibacterial activity of all ten synthesized linear and cyclic peptides was evaluated against MRSA (ATCC BAA-1556), S. aureus (ATCC 29213), E. faecium (ATCC 700221), S. pneumoniae (ATCC 51938), E. faecalis (ATCC 29212), B. subtilis (ATCC-6633), K. pneumoniae (ATCC BAA-1705), P. aeruginosa (ATCC 27883), and E. coli (ATCC 25922). Meropenem and daptomycin were used as positive controls for this study. Certain peptides are marked as “NT” (not tested) against specific bacterial strains based on initial screening data. […] The MIC was determined by micro-broth dilution protocol, where the minimal concentrations were determined to be in wells with no visible bacterial growth.
(§5) All bacterial experiments were carried out in a laminar flow hood (Labconco, Kansas City, MO, USA). The bacterial strains were cultured following the guidelines set by the Clinical Laboratory Standards Institute (CLSI). Antibacterial assays were performed using a standard microtiter dilution method as described in previous studies. The minimum inhibitory concentration (MIC) refers to the lowest peptide concentration that inhibits bacterial growth in wells with no visible bacterial growth. MIC was determined by micro-broth dilution. Bacteria were cultured overnight in 6 mL of Luria Broth (LB). A stock solution of the peptide was prepared in water and DMSO, and a test compound solution with a concentration of 256 µg/mL was made in LB. Meropenem, with a solubility of 8 mg/mL, was prepared as a stock solution at 4 mg/500 µL. An aliquot of the overnight bacteria culture was diluted in normal saline (NS, 1 mL) until achieving a 0.5 McFarland turbidity (1.5 × 10^8 bacterial cell CFU/mL). A 0.5 McFarland compared solution (60 µL) was added to Mueller Hinton Broth (MH) 8940 µL to generate a 1/150 dilution. A 200 µL test compound solution was added to the first well of a 96-well plate, and the remaining wells (2–12) were filled with 100 µL of MH media using a multi-channel pipette from a sterile reservoir. A concentration of […] of the tested peptides was prepared from a stock solution of the samples for testing in Muller−Hinton broth MH media. Peptides stock solution was dissolved in 5% DMSO in water, and the final concentration of DMSO in the first well of assay plate was 2.5% DMSO/H2O and diluted across the assay plate.
(§6) A 100 µL sample from well 1 was pipetted into well 2, and the solution was mixed thoroughly by pipetting up and down. Next, 100 µL was transferred from well 2 to well 3, followed by thorough mixing. This 2-fold serial dilution process continued through well 11, with no additions made to well 12. The final 100 µL from well 11 was discarded. After completing the serial dilution, each well (1–12) contained 100 µL of solution. The bacterial culture in MH media was vortexed and transferred to a sterile reservoir, from which 100 µL was added to each well using a 12-channel pipette. (Note: The dilutions were further diluted upon adding the bacterial solution; for example, the concentration in well 1 started at […] after the addition of the bacterial culture.) The plates were incubated overnight at 37 °C for 24 h. All experiments were performed in triplicate and repeated twice, with controls consisting of bacteria in MH media and positive controls of daptomycin or meropenem.

In test [5] the test system is K. pneumoniae (ATCC BAA-1705). Type of test: cell-based, Klebsiella pneumoniae. The following applies: ATCC BAA-1705, 24 h. As for the experimental part:
as §4, §5, §6

For test [6], the system named is P. aeruginosa (ATCC 27883). Type of test: cell-based, Pseudomonas aeruginosa. The conditions noted are these: ATCC 27883, 24 h. As for the experimental part: as §4, §5, §6
The test system of test [7] is E. coli (ATCC 25922). Type of test: cell-based, Escherichia coli. The conditions noted are these: ATCC 25922, 24 h. As for the experimental part: as §4, §5, §6
Where [8] appears, read: Candida albicans, ATCC60193, RPMI 1640 with 2% D-glucose, HEPES, 10^6 cells/mL, 24 h at 37 °C, no visible growth, triplicates, repeated twice.
Where [9] appears, read: Lodderomyces parapsilosis, ATCC22019, RPMI 1640 with 2% D-glucose, HEPES, 10^6 cells/mL, 24 h at 37 °C, no visible growth, triplicates, repeated twice.

The structures appear in SMILES notation. ≈ marks a conversion by molar mass, not a printed value. Non-standard residues stand in square brackets, D forms with d. Residues, ends and D or L forms follow the SMILES beside them. Dip = N[C@H](C(=O)O)C(c1ccccc1)c1ccccc1

As for `C[C@@H]1[C@H](O)[C@@H](C)/C=C/C=C/C=C/C=C/C=C/C=C/C=C/[C@H](O[C@@H]2O[C@H](C)[C@@H](O)[C@H](N)[C@@H]2O)C[C@@H]2O[C@](O)(C[C@@H](O)C[C@@H](O)[C@H](O)CC[C@@H](O)C[C@@H](O)CC(=O)O[C@H]1C)C[C@H](O)[C@H]2C(=O)O` [Amphotericin B, reference compound], the MIC amounted to 0.42 µM (≈ 0.388 µg/mL) in test [1] (setting [8]), 0.42 µM (≈ 0.388 µg/mL) in test [2] (setting [9]) and 0.84 µM (≈ 0.776 µg/mL) in test [3] (Aspergillus fumigatus).

For `OC(Cn1cncn1)(Cn1cncn1)c1ccc(F)cc1F` [Fluconazole, reference compound], the MIC in test [1] (setting [8]) was 4.9 µM (≈ 1.5 µg/mL); in test [2] (setting [9]) it was 3.3 µM (≈ 1.01 µg/mL); in test [3] (Aspergillus fumigatus) it was more than 209 µM; in test [3] it was more than 209 µM.

Consider `N=C(N)NCCC[C@@H]1NC(=O)[C@H](Cc2c[nH]c3ccccc23)NC(=O)[C@H](CCCNC(=N)N)NC(=O)[C@H](Cc2c[nH]c3ccccc23)NC(=O)[C@H](CCCNC(=N)N)NC(=O)[C@H](C(c2ccccc2)c2ccccc2)NC(=O)[C@H](CCCNC(=N)N)NC(=O)[C@H](C(c2ccccc2)c2ccccc2)NC(=O)[C@H](CCCNC(=N)N)NC(=O)[C@H](Cc2c[nH]c3ccccc23)NC1=O` [[(DipR)2(WR)3]] (cyclo([Dip]R[Dip]RWRWRWR)), for which the MIC in test [4] turned out to be 3.1 µM (≈ 5.54 µg/mL); in test [5], 12.5 µM (≈ 22.3 µg/mL); in test [6], 25 µM (≈ 44.7 µg/mL); in test [7], 12.5 µM (≈ 22.3 µg/mL); in test [1] (ATCC 60193, 24 h), 7.0 µM (≈ 12.5 µg/mL); in test [2] (ATCC 22019, 24 h), 7.0 µM (≈ 12.5 µg/mL). Further, in test [3], the MIC came to 1.7 µM (≈ 3.04 µg/mL).

For `N=C(N)NCCC[C@@H]1NC(=O)[C@H](Cc2c[nH]c3ccccc23)NC(=O)[C@H](CCCNC(=N)N)NC(=O)[C@H](C(c2ccccc2)c2ccccc2)NC(=O)[C@H](CCCNC(=N)N)NC(=O)[C@H](C(c2ccccc2)c2ccccc2)NC(=O)[C@H](CCCNC(=N)N)NC(=O)[C@H](C(c2ccccc2)c2ccccc2)NC(=O)[C@H](CCCNC(=N)N)NC(=O)[C@H](Cc2c[nH]c3ccccc23)NC1=O` [[(DipR)3(WR)2]] (cyclo([Dip]R[Dip]R[Dip]RWRWR)), the MIC in test [4] was 3.1 µM (≈ 5.65 µg/mL); in test [5], 12.5 µM (≈ 22.8 µg/mL); in test [6], 25 µM (≈ 45.6 µg/mL); in test [7] it was 12.5 µM (≈ 22.8 µg/mL); in test [1] (ATCC 60193, 24 h) it was 6.8 µM (≈ 12.4 µg/mL); in test [2] (ATCC 22019, 24 h) it was 6.8 µM (≈ 12.4 µg/mL). This compound also came in with an MIC in test [3] of 1.7 µM (≈ 3.1 µg/mL).

Take `N=C(N)NCCC[C@@H]1NC(=O)[C@H](Cc2c[nH]c3ccccc23)NC(=O)[C@H](CCCNC(=N)N)NC(=O)[C@H](C(c2ccccc2)c2ccccc2)NC(=O)[C@H](CCCNC(=N)N)NC(=O)[C@H](C(c2ccccc2)c2ccccc2)NC(=O)[C@H](CCCNC(=N)N)NC(=O)[C@H](C(c2ccccc2)c2ccccc2)NC(=O)[C@H](CCCNC(=N)N)NC(=O)[C@H](C(c2ccccc2)c2ccccc2)NC1=O` [[(DipR)4(WR)]] (cyclo([Dip]R[Dip]R[Dip]R[Dip]RWR)): the MIC is 3.1 µM (≈ 5.77 µg/mL) in test [4]; 25 µM (≈ 46.5 µg/mL) in test [5]; 25 µM (≈ 46.5 µg/mL) in test [6]; 12.5 µM (≈ 23.3 µg/mL) in test [7]; 6.7 µM (≈ 12.5 µg/mL) in test [1] (ATCC 60193, 24 h); 6.7 µM (≈ 12.5 µg/mL) in test [2] (ATCC 22019, 24 h). Also, the MIC in test [3] turned out to be 1.7 µM (≈ 3.16 µg/mL).

For the compound `N=C(N)NCCC[C@@H]1NC(=O)[C@H](Cc2c[nH]c3ccccc23)NC(=O)[C@H](CCCNC(=N)N)NC(=O)[C@H](Cc2c[nH]c3ccccc23)NC(=O)[C@H](CCCNC(=N)N)NC(=O)[C@H](C(c2ccccc2)c2ccccc2)NC(=O)[C@H](CCCNC(=N)N)NC(=O)[C@H](Cc2c[nH]c3ccccc23)NC(=O)[C@H](CCCNC(=N)N)NC(=O)[C@H](Cc2c[nH]c3ccccc23)NC1=O` [[(DipR)(WR)4]] (cyclo([Dip]RWRWRWRWR)), the MIC is on record as 3.1 µM (≈ 5.42 µg/mL) in test [4]; 12.5 µM (≈ 21.9 µg/mL) in test [5]; 25 µM (≈ 43.7 µg/mL) in test [6]; 12.5 µM (≈ 21.9 µg/mL) in test [7]; 14.3 µM (≈ 25 µg/mL) in test [1] (ATCC 60193, 24 h); 7.1 µM (≈ 12.4 µg/mL) in test [2] (ATCC 22019, 24 h). The compound also had an MIC in test [3] of 1.8 µM (≈ 3.15 µg/mL).

Values taken from publication PMC11763264, “Antibacterial and Antifungal Activities of Linear and Cyclic Peptides Containing Arginine, Tryptophan, and Diphenylalanine” (Antibiotics, 2025).
